Reference: patent US20240368120A1 (Terns Pharmaceuticals, Inc., priority 2023, published 2024)

Target: T1, human GLP-1R receptor (Homo sapiens, UniProt P43220)
T1 construct: expressed in transfected cells
Assay: GLP-1R low expression cell assay (cAMP TR-FRET, CHO-K1_hGLP-1Rlow_clone10 cells)
Assay type: cell-based
Conditions: for EC50: cAMP TR-FRET, 30 min at 25° C.; for Emax: maximum activation relative to control GLP-1 peptide agonist
Method: Stable cell lines expressing high and low GLP-1R surface expression were generated in CHO-K1 cells transfected (Fugene 6) with a puromycin selectable DNA plasmid encoding human GLP-1R receptor (accession number: NM_002062.5) under control of an EF1A promoter. Transfected cells were seeded into 24-well plates (9,000 cells/well) containing complete medium and incubated in a humidified incubator at 37° C. with 5% carbon dioxide. After overnight incubation, medium was replaced with complete medium supplemented with puromycin (6 μg/mL) and refreshed every 2-3 days to select for stably transfected cells. Individual pools of selected cells were expanded prior to analysis for responsiveness to GLP-1 control peptide using a TR-FRET assay to detect cAMP (LANCE Ultra CAMP Assay, Perkin Elmer). Briefly, cells were collected in Versene solution, plated in 384-well plates (1,000 cells/well) and combined with serially diluted GLP-IR control peptide (10 nL) using an acoustic dispenser (ECHO). Plates were incubated for 30 minutes at 25° C. prior to the addition of EU-CAMP tracer (5 μL) and Ulight-anti-CAMP (5 μL) reagents to each well, followed by 15 minutes incubation at 25° C. TR-FRET signal was detected using an En Vision Multimode Plate Reader (excitation=320 nm; emission=615 and 655 nm). Dose-response curves were used to generate EC50 values as a measure of responsiveness to the GLP-IR control peptide. Selected cell lines were monitored for responsiveness over multiple passages to ensure stability. […] Briefly, GLP-IR expression was analyzed by flow cytometry using a fluorescein-labeled Exendin-4 peptide fluorescent probe (FLEX). Cells were harvested in Versene solution and washed 3-times with PBS+0.5% BSA before incubation with FLEX reagent (10 μM) for 2 hours at room temperature. After incubation, cells were washed 3-times in PBS+0.5% BSA before final resuspension in PBS prior to analysis by flow cytometry to measure FLEX mean fluorescence intensity (MFI) as a measure of GLP-IR expression on the cell surface.
For compound testing in the CHO-K1_hGLP-IRlow_clone10 cell line, cells were seeded in 384-well plates (1,000 cells/well). Test compounds were serially diluted in DMSO (10-point, 3-fold dilution), added to wells using an ECHO dispenser (10 nL/well) and plates were centrifuged for 1 min and agitated for 2 min at room temperature prior to 30-minute incubation at 25° C. After incubation, Eu-CAMP (5 μL) and Ulight-anti-cAMP (5 μL) reagents were added to each well, followed by centrifugation for 1 minute, agitation for 2 minutes at room temperature, and final incubation of the plates at 25° C. for 15 minutes. Plates were read using an EnVision microplate reader (excitation=320 nm; emission=615 and 655 nm). Dose-response curves were generated from duplicate wells based on percent activation calculated relative to a control GLP-1 peptide agonist that was run in parallel. EC50 values were determined by fitting percent activation as a function of compound concentration using the Hill equation (XLfit).
The compounds tested were compound samples prepared according to the General Procedures described in the Examples section.

T1 sequence (P43220 24-463): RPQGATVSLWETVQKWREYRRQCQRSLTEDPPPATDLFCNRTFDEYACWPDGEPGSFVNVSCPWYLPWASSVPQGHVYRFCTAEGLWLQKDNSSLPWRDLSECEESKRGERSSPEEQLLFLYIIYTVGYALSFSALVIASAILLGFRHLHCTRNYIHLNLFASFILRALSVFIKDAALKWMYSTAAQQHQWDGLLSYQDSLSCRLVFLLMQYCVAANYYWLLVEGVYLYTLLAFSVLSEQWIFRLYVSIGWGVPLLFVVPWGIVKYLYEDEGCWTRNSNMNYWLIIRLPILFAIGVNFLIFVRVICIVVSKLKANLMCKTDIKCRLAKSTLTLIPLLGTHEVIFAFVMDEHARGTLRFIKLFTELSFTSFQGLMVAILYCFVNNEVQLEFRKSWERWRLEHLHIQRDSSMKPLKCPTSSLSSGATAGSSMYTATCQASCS

Structure (SMILES) | EC50 | Emax
N#Cc1ccc(COc2cccc(C3CCN(Cc4nc5c(O)cc(C(=O)O)cc5n4Cc4cncs4)CC3)n2)c(F)c1 [Compound 82, 2-((4-(6-((4-Cyano-2-fluorobenzyl)oxy)pyridin-2-yl)piperidin-1-yl)methyl)-4-hydroxy-1-(thiazol-5-ylmethyl)-1H-benzo[d]imidazole-6-carboxylic acid] | < 0.01 µM | > 85%
CC(C)Oc1cc(C(=O)O)cc2c1nc(CN1CCC(c3cccc4c3O[C@@](C)(c3ccc(Cl)cn3)O4)CC1)n2C [Compound 84, (S)-2-((4-(2-(5-Chloropyridin-2-yl)-2-methylbenzo[d][1,3]dioxol-4-yl)piperidin-1-yl)methyl)-4-isopropoxy-1-methyl-1H-benzo[d]imidazole-6-carboxylic acid] | < 0.01 µM | > 85%
COc1cc(C(=O)O)cc2c1nc(CN1CCC(c3cccc4c3O[C@@](C)(c3ccc(Cl)cn3)O4)CC1)n2C(C)C [Compound 86, (S)-2-((4-(2-(5-Chloropyridin-2-yl)-2-methylbenzo[d][1,3]dioxol-4-yl)piperidin-1-yl)methyl)-1-isopropyl-4-methoxy-1H-benzo[d]imidazole-6-carboxylic acid] | 0.1 to 1 µM | > 85%
Cn1c(CN2CCC(c3cccc4c3O[C@@](C)(c3ccc(Cl)cn3)O4)CC2)nc2c(C(C)(F)F)cc(C(=O)O)cc21 [Compound 87, (S)-2-((4-(2-(5-Chloropyridin-2-yl)-2-methylbenzo[d][1,3]dioxol-4-yl)piperidin-1-yl)methyl)-4-(1,1-difluoroethyl)-1-methyl-1H-benzo[d]imidazole-6-carboxylic acid] | 0.1 to 1 µM | > 85%
CCn1c(CN2CCC(c3cccc4c3O[C@@](C)(c3ccc(Cl)cn3)O4)CC2)nc2c(OC(C)C)cc(C(=O)O)cc21 [Compound 88, (S)-2-((4-(2-(5-Chloropyridin-2-yl)-2-methylbenzo[d][1,3]dioxol-4-yl)piperidin-1-yl)methyl)-1-ethyl-4-isopropoxy-1H-benzo[d]imidazole-6-carboxylic acid] | 0.01 to 0.1 µM | > 85%
COc1cc(C(=O)O)cc2c1nc(CN1CCC(c3cccc4c3O[C@H](c3ccc(C#N)cc3F)CO4)CC1)n2Cc1cncs1 [Compound 91, (R)-2-((4-(3-(4-cyano-2-fluorophenyl)-2,3-dihydrobenzo[b][1,4]dioxin-5-yl)piperidin-1-yl)methyl)-4-methoxy-1-(thiazol-5-ylmethyl)-1H-benzo[d]imidazole-6-carboxylic acid] | 0.1 to 1 µM | > 85%
C[C@]1(c2ccc(Cl)cn2)Oc2cccc(C3CCN(Cc4nc5c(O)cc(C(=O)O)cc5n4C[C@@H]4CCO4)CC3)c2O1 [Compound 92, 2-((4-((S)-2-(5-Chloropyridin-2-yl)-2-methylbenzo[d][1,3]dioxol-4-yl)piperidin-1-yl)methyl)-4-hydroxy-1-(((S)-oxetan-2-yl)methyl)-1H-benzo[d]imidazole-6-carboxylic acid] | < 0.01 µM | > 85%
C[C@]1(c2ccc(Cl)cn2)Oc2cccc(C3CCN(Cc4nc5c6c(c(C(=O)O)cc5n4C[C@@H]4CCO4)OCCO6)CC3)c2O1 [Compound 93, 2-((4-((S)-2-(5-Chloropyridin-2-yl)-2-methylbenzo[d][1,3]dioxol-4-yl)piperidin-1-yl)methyl)-3-(((S)-oxetan-2-yl)methyl)-7,8-dihydro-3H-[1,4]dioxino[2′,3′:3,4]benzo[1,2-d]imidazole-5-carboxylic acid] | < 0.01 µM | > 85%

Other lines, results leading:

EC50 | Emax | Structure (SMILES)
> 1 µM | > 85% | COc1cc(C(=O)O)cc2c1nc([C@@H](C)N1CCC(c3cccc(OCc4ccc(C#N)cc4F)n3)CC1)n2C[C@@H]1CCO1 [Compound 94, 2-((R)-1-(4-(6-((4-Cyano-2-fluorobenzyl)oxy)pyridin-2-yl)piperidin-1-yl)ethyl)-4-methoxy-1-(((S)-oxetan-2-yl)methyl)-1H-benzo[d]imidazole-6-carboxylic acid]
< 0.01 µM | > 85% | COc1cc(C(=O)O)cc2c1nc([C@H](C)N1CCC(c3cccc(OCc4ccc(C#N)cc4F)n3)CC1)n2C[C@@H]1CCO1 [Compound 95, 2-((S)-1-(4-(6-((4-Cyano-2-fluorobenzyl)oxy)pyridin-2-yl)piperidin-1-yl)ethyl)-4-methoxy-1-(((S)-oxetan-2-yl)methyl)-1H-benzo[d]imidazole-6-carboxylic acid]
0.01 to 0.1 µM | > 85% | COc1cc(C(=O)O)cc2c1nc([C@H](C)N1CCC(c3cccc4c3O[C@@](C)(c3ccc(Cl)cn3)O4)CC1)n2C [Compound 96, 2-((S)-1-(4-((S)-2-(5-Chloropyridin-2-yl)-2-methylbenzo[d][1,3]dioxol-4-yl)piperidin-1-yl)ethyl)-4-methoxy-1-methyl-1H-benzo[d]imidazole-6-carboxylic acid]
> 1 µM | > 85% | COc1cc(C(=O)O)cc2c1nc([C@@H](C)N1CCC(c3cccc4c3O[C@@](C)(c3ccc(Cl)cn3)O4)CC1)n2C [Compound 97, 2-((R)-1-(4-((S)-2-(5-chloropyridin-2-yl)-2-methylbenzo[d][1,3]dioxol-4-yl)piperidin-1-yl)ethyl)-4-methoxy-1-methyl-1H-benzo[d]imidazole-6-carboxylic acid]
< 0.01 µM | > 85% | [2H]C([2H])([2H])Oc1cc(C(=O)O)cc2c1nc(CN1CCC(c3cccc4c3O[C@@](C)(c3ccc(Cl)cn3)O4)CC1)n2C[C@@H]1CCO1 [Compound 98, 2-((4-((S)-2-(5-chloropyridin-2-yl)-2-methylbenzo[d][1,3]dioxol-4-yl)piperidin-1-yl)methyl)-4-(methoxy-d3)-1-(((S)-oxetan-2-yl)methyl)-1H-benzo[d]imidazole-6-carboxylic acid]
> 1 µM | > 85% | C[C@]1(c2ccc(Cl)cn2)Oc2cccc(C3CCN(Cc4nc5cc(C(=O)O)c6c(c5n4C[C@@H]4CCO4)OCCO6)CC3)c2O1 [Compound 99, 2-((4-((S)-2-(5-Chloropyridin-2-yl)-2-methylbenzo[d][1,3]dioxol-4-yl)piperidin-1-yl)methyl)-1-(((S)-oxetan-2-yl)methyl)-7,8-dihydro-1H-[1,4]dioxino[2′,3′:3,4]benzo[1,2-d]imidazole-5-carboxylic acid]
< 0.01 µM | > 85% | N#Cc1ccc(COc2cccc(C3CCN(Cc4nc5c6c(c(C(=O)O)cc5n4C[C@@H]4CCO4)OCCO6)CC3)n2)c(F)c1 [Compound 100, (S)-2-((4-(6-((4-Cyano-2-fluorobenzyl)oxy)pyridin-2-yl)piperidin-1-yl)methyl)-3-(oxetan-2-ylmethyl)-7,8-dihydro-3H-[1,4]dioxino[2′,3′:3,4]benzo[1,2-d]imidazole-5-carboxylic acid]
0.01 to 0.1 µM | > 85% | N#Cc1ccc(COc2cccc(C3CCN(Cc4nc5cc(C(=O)O)c6c(c5n4C[C@@H]4CCO4)OCCO6)CC3)n2)c(F)c1 [Compound 101, (S)-2-((4-(6-((4-Cyano-2-fluorobenzyl)oxy)pyridin-2-yl)piperidin-1-yl)methyl)-1-(oxetan-2-ylmethyl)-7,8-dihydro-1H-[1,4]dioxino[2′,3′:3,4]benzo[1,2-d]imidazole-5-carboxylic acid]
0.01 to 0.1 µM | > 85% | COc1cc(C(=O)O)cc2c1nc([C@H](C)N1CCC(c3cccc(OCc4ccc(C#N)cc4F)n3)CC1)n2C [Compound 102, (S)-2-(1-(4-(6-((4-Cyano-2-fluorobenzyl)oxy)pyridin-2-yl)piperidin-1-yl)ethyl)-4-methoxy-1-methyl-1H-benzo[d]imidazole-6-carboxylic acid]
> 1 µM | 50 to 85% | COc1cc(C(=O)O)cc2c1nc([C@@H](C)N1CCC(c3cccc(OCc4ccc(C#N)cc4F)n3)CC1)n2C [Compound 103, (R)-2-(1-(4-(6-((4-Cyano-2-fluorobenzyl)oxy)pyridin-2-yl)piperidin-1-yl)ethyl)-4-methoxy-1-methyl-1H-benzo[d]imidazole-6-carboxylic acid]
